Source: the NIST ThermoML archive (doi:10.1021/je700339f)
± gives the expanded uncertainty stated by the source.

Test: xn = mol fraction of the nth substance listed
Conditions: 298 K, Liquid

ClCCCl [1,2-dichloroethane] + CC(=O)N(C)C
mass density (15000 kPa, x2 = 0.7008): 1028 ± 6.2 kg/m3 | mass density (15000 kPa, x2 = 0.7988): 1000 ± 6 kg/m3 | mass density (15000 kPa, x2 = 0.8997): 972.3 ± 5.9 kg/m3 | mass density (15500 kPa, x2 = 0.0977): 1223.7 ± 7.4 kg/m3 | mass density (15500 kPa, x2 = 0.2003): 1187.4 ± 7.3 kg/m3 | mass density (15500 kPa, x2 = 0.2988): 1153.8 ± 7 kg/m3 | mass density (15500 kPa, x2 = 0.4022): 1119.8 ± 6.8 kg/m3 | mass density (15500 kPa, x2 = 0.4999): 1088.7 ± 6.6 kg/m3 | mass density (15500 kPa, x2 = 0.6007): 1057.8 ± 6.3 kg/m3 | mass density (15500 kPa, x2 = 0.7008): 1028.4 ± 6.1 kg/m3 | mass density (15500 kPa, x2 = 0.7988): 1000.4 ± 6 kg/m3 | mass density (15500 kPa, x2 = 0.8997): 972.6 ± 5.9 kg/m3 | mass density (15900 kPa, x2 = 0.4022): 1120.1 ± 6.8 kg/m3 | mass density (16000 kPa, x2 = 0.0977): 1224.1 ± 7.4 kg/m3 | mass density (16000 kPa, x2 = 0.2003): 1187.8 ± 7.3 kg/m3 | mass density (16000 kPa, x2 = 0.2988): 1154.2 ± 7 kg/m3 | mass density (16000 kPa, x2 = 0.4999): 1089.1 ± 6.6 kg/m3 | mass density (16000 kPa, x2 = 0.6007): 1058.1 ± 6.4 kg/m3 | mass density (16000 kPa, x2 = 0.7008): 1028.7 ± 6.2 kg/m3 | mass density (16000 kPa, x2 = 0.7988): 1000.6 ± 6 kg/m3 | mass density (16000 kPa, x2 = 0.8997): 972.9 ± 5.9 kg/m3 | mass density (16400 kPa, x2 = 0.0977): 1224.5 ± 7.4 kg/m3 | mass density (16500 kPa, x2 = 0.2003): 1188.2 ± 7.3 kg/m3 | mass density (16500 kPa, x2 = 0.2988): 1154.6 ± 7 kg/m3 | mass density (16500 kPa, x2 = 0.4022): 1120.5 ± 6.8 kg/m3 | mass density (16500 kPa, x2 = 0.4999): 1089.4 ± 6.6 kg/m3 | mass density (16500 kPa, x2 = 0.6007): 1058.4 ± 6.4 kg/m3 | mass density (16500 kPa, x2 = 0.7008): 1029 ± 6.1 kg/m3 | mass density (16500 kPa, x2 = 0.7988): 1001 ± 6 kg/m3 | mass density (16500 kPa, x2 = 0.8997): 973.2 ± 5.9 kg/m3 | mass density (16900 kPa, x2 = 0.7008): 1029.3 ± 6.2 kg/m3 | mass density (17000 kPa, x2 = 0.0977): 1224.9 ± 7.4 kg/m3 | mass density (17000 kPa, x2 = 0.2003): 1188.6 ± 7.3 kg/m3 | mass density (17000 kPa, x2 = 0.2988): 1155 ± 7 kg/m3 | mass density (17000 kPa, x2 = 0.4022): 1120.9 ± 6.8 kg/m3 | mass density (17000 kPa, x2 = 0.4999): 1089.8 ± 6.6 kg/m3 | mass density (17000 kPa, x2 = 0.6007): 1058.8 ± 6.4 kg/m3 | mass density (17000 kPa, x2 = 0.7988): 1001.3 ± 6 kg/m3 | mass density (17000 kPa, x2 = 0.8997): 973.4 ± 5.9 kg/m3 | mass density (17500 kPa, x2 = 0.0977): 1225.4 ± 7.4 kg/m3 | mass density (17500 kPa, x2 = 0.2003): 1189.2 ± 7.3 kg/m3 | mass density (17500 kPa, x2 = 0.2988): 1155.3 ± 7.1 kg/m3 | mass density (17500 kPa, x2 = 0.4022): 1121.3 ± 6.8 kg/m3 | mass density (17500 kPa, x2 = 0.4999): 1090.1 ± 6.6 kg/m3 | mass density (17500 kPa, x2 = 0.6007): 1059.2 ± 6.4 kg/m3 | mass density (17500 kPa, x2 = 0.7008): 1029.7 ± 6.2 kg/m3 | mass density (17500 kPa, x2 = 0.7988): 1001.5 ± 6 kg/m3 | mass density (17500 kPa, x2 = 0.8997): 973.7 ± 5.9 kg/m3 | mass density (17900 kPa, x2 = 0.4022): 1121.5 ± 6.8 kg/m3 | mass density (18000 kPa, x2 = 0.0977): 1225.8 ± 7.4 kg/m3 | mass density (18000 kPa, x2 = 0.2003): 1189.5 ± 7.3 kg/m3 | mass density (18000 kPa, x2 = 0.2988): 1155.7 ± 7.1 kg/m3 | mass density (18000 kPa, x2 = 0.4999): 1090.4 ± 6.6 kg/m3 | mass density (18000 kPa, x2 = 0.6007): 1059.5 ± 6.4 kg/m3 | mass density (18000 kPa, x2 = 0.7008): 1029.9 ± 6.2 kg/m3 | mass density (18000 kPa, x2 = 0.7988): 1001.8 ± 6 kg/m3 | mass density (18000 kPa, x2 = 0.8997): 974 ± 5.9 kg/m3 | mass density (18500 kPa, x2 = 0.0977): 1226.1 ± 7.4 kg/m3 | mass density (18500 kPa, x2 = 0.2003): 1189.8 ± 7.3 kg/m3 | mass density (18500 kPa, x2 = 0.2988): 1156.1 ± 7.1 kg/m3 | mass density (18500 kPa, x2 = 0.4022): 1122 ± 6.8 kg/m3 | mass density (18500 kPa, x2 = 0.4999): 1090.8 ± 6.6 kg/m3 | mass density (18500 kPa, x2 = 0.6007): 1059.8 ± 6.4 kg/m3 | mass density (18500 kPa, x2 = 0.7008): 1030.2 ± 6.2 kg/m3 | mass density (18500 kPa, x2 = 0.7988): 1002.1 ± 6 kg/m3 | mass density (18500 kPa, x2 = 0.8997): 974.3 ± 5.9 kg/m3 | mass density (19000 kPa, x2 = 0.0977): 1226.6 ± 7.4 kg/m3 | mass density (19000 kPa, x2 = 0.2003): 1190.3 ± 7.3 kg/m3 | mass density (19000 kPa, x2 = 0.2988): 1156.5 ± 7.1 kg/m3 | mass density (19000 kPa, x2 = 0.4022): 1122.4 ± 6.8 kg/m3 | mass density (19000 kPa, x2 = 0.4999): 1091.2 ± 6.6 kg/m3 | mass density (19000 kPa, x2 = 0.6007): 1060.2 ± 6.4 kg/m3 | mass density (19000 kPa, x2 = 0.7008): 1030.6 ± 6.2 kg/m3 | mass density (19000 kPa, x2 = 0.7988): 1002.5 ± 6 kg/m3 | mass density (19000 kPa, x2 = 0.8997): 974.7 ± 5.9 kg/m3 | mass density (19500 kPa, x2 = 0.0977): 1227 ± 7.5 kg/m3 | mass density (19500 kPa, x2 = 0.2003): 1190.6 ± 7.3 kg/m3 | mass density (19500 kPa, x2 = 0.2988): 1156.8 ± 7.1 kg/m3 | mass density (19500 kPa, x2 = 0.4022): 1122.7 ± 6.8 kg/m3 | mass density (19500 kPa, x2 = 0.4999): 1091.5 ± 6.6 kg/m3 | mass density (19500 kPa, x2 = 0.6007): 1060.5 ± 6.4 kg/m3 | mass density (19500 kPa, x2 = 0.7008): 1030.9 ± 6.2 kg/m3 | mass density (19500 kPa, x2 = 0.7988): 1002.7 ± 6 kg/m3 | mass density (19500 kPa, x2 = 0.8997): 975 ± 5.9 kg/m3 | mass density (20000 kPa, x2 = 0.0977): 1227.5 ± 7.5 kg/m3 | mass density (20000 kPa, x2 = 0.2988): 1157.2 ± 7.1 kg/m3 | mass density (20000 kPa, x2 = 0.4022): 1123.1 ± 6.8 kg/m3 | mass density (20000 kPa, x2 = 0.4999): 1091.9 ± 6.6 kg/m3 | mass density (20000 kPa, x2 = 0.6007): 1060.8 ± 6.4 kg/m3 | mass density (20000 kPa, x2 = 0.7008): 1031.2 ± 6.2 kg/m3 | mass density (20000 kPa, x2 = 0.7988): 1003 ± 6 kg/m3 | mass density (20100 kPa, x2 = 0.2003): 1191.1 ± 7.3 kg/m3 | mass density (20100 kPa, x2 = 0.8997): 975.4 ± 5.8 kg/m3
